According to US20260248783A1 (ASCLETIS BIOSCIENCE CO., LTD., priority 2021, published 2026):

The compounds below were run against T1, PD-1/PD-L1 (Homo sapiens, UniProt Q9NZQ7) (assay: PD-1/PD-L1 Homogeneous Time-Resolved Fluorescence (HTRF) Binding Assay). Details: PD-1/PD-L1 HTRF activity; 3 nM PD1, 10 nM PD-L1, 25° C.
T1 construct: Recombinant human PD-L1 protein (19-238) with a Histag at the C-terminus; purchased AcroBiosystems PD1-H5229 (PD-L1); PD1-H5257 (PD-1)
Method: Example 107. PD-1/PD-L1 Homogeneous Time-Resolved Fluorescence (HTRF) Binding Assay
The assays were conducted in a standard black 384-well polystyrene plate with a final volume of 20 μL. Inhibitors were first serially diluted in DMSO and then added to the plate wells before the addition of other reaction components. The final concentration of DMSO in the assay was 1%. The assays were carried out at 25° C. in the PBS buffer (pH 7.4) with 0.05% Tween-20 and 0.1% BSA. Recombinant human PD-L1 protein (19-238) with a Histag at the C-terminus was purchased from AcroBiosystems (PD1-H5229). Recombinant human PD-1 protein (25-167) with Fe tag at the C-terminus was also purchased from AcroBiosystems (PD1-H5257). PD-L1 and PD-1 proteins were diluted in the assay buffer and 10 μL was added to the plate well. Plates were centrifuged and proteins were preincubated with inhibitors for 40 minutes. The incubation was followed by the addition of 10 μL of HTRF detection buffer supplemented with Europium cryptate-labeled anti-human IgG (PerkinElmer-AD0212) specific for Fe and anti-His antibody conjugated to SureLight®—Allophycocyanin (APC, PerkinElmer-AD0059H). After centrifugation, the plate was incubated at 25° C. for 60 min. before reading on a PHERAstar FS plate reader (665 nm/620 nm ratio). Final concentrations in the assay were […], 10 nM PD-L1, 1 nM europium anti-human IgG and 20 nM anti-His-Allophycocyanin. IC50 determination was performed by fitting the curve of percent control activity versus the log of the inhibitor concentration.

T1 sequence (Q9NZQ7 19-238): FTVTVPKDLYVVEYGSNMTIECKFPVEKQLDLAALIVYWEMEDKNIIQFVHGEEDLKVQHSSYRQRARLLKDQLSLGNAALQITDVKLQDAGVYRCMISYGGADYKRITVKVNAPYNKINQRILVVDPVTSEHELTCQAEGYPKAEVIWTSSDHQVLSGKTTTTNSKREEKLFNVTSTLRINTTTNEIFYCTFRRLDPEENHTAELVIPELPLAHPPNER

Row | IC50 [nM] | Compound
1 | ≥ 100 | Cc1cn2cc(-c3cccc(-c4cccc(-c5cc6c(=O)n(CCNCC7CCCN7)c(C)cn6c5)c4Cl)c3Cl)cc2c(=O)n1CCNCC1CCCN1 (stereo not shown) [Compound 55, 7,7′-(2,2′-dichloro-[1,1′-biphenyl]-3,3′-diyl)bis(3-methyl-2-(2-((pyrrolidin-2-ylmethyl)amino)ethyl)pyrrolo[1,2-a]pyrazin-1(2H)-one)]
2 | 10 to 100 | Cc1cn2nc(-c3cccc(-c4cccc(-c5cc6c(=O)n(CCN[C@H](C(=O)O)[C@@H](C)O)c(C)cn6n5)c4Cl)c3Cl)cc2c(=O)n1CCN[C@H](C(=O)O)[C@@H](C)O [Compound 60, (2S,2'S,3R,3′R)-2,2′-((((2,2′-dichloro-[1,1′-biphenyl]-3,3′-diyl)bis(6-methyl-4-oxopyrazolo[1,5-a]pyrazine-2,5(4H)-diyl))bis(ethane-2,1-diyl))bis(azanediyl)) bis(3-hydroxybutanoic acid)]
3 | 10 to 100 | Cc1cn2nc(-c3cccc(-c4cccc(-c5cc6c(=O)n(CCN[C@H](CO)C(=O)O)c(C)cn6n5)c4Cl)c3Cl)cc2c(=O)n1CCN[C@H](CO)C(=O)O [Compound 61, (2R,2′R)-2,2′-((((2,2′-dichloro-[1,1′-biphenyl]-3,3′-diyl)bis(6-methyl-4-oxopyrazolo[1,5-a]pyrazine-2,5(4H)-diyl))bis(ethane-2,1-diyl))bis(azanediyl))bis(3-hydroxypropanoic acid)]
4 | 10 to 100 | Cc1nn2cc(-c3cccc(-c4cccc(-c5cc6c(=O)n(CCN[C@@H](CO)C(=O)O)c(C)nn6c5)c4Cl)c3Cl)cc2c(=O)n1CCN[C@@H](CO)C(=O)O [Compound 64, (2S,2'S)-2,2′-((((2,2′-dichloro-[1,1′-biphenyl]-3,3′-diyl)bis(2-methyl-4-oxopyrrolo[2,1-f][1,2,4]triazine-6,3(4H)-diyl))bis(ethane-2,1-diyl))bis(azanediyl))bis(3-hydroxypropanoic acid)]
5 | 10 to 100 | CC(=O)NC[C@H](NCCn1c(C)cn2nc(-c3cccc(-c4cccc(-c5cc6c(=O)n(CCN[C@@H](CNC(C)=O)C(=O)O)c(C)cn6n5)c4Cl)c3Cl)cc2c1=O)C(=O)O [Compound 68, (2S,2'S)-2,2′-((((2,2′-dichloro-[1,1′-biphenyl]-3,3′-diyl)bis(6-methyl-4-oxopyrazolo[1,5-a]pyrazine-2,5(4H)-diyl))bis(ethane-2,1-diyl))bis(azanediyl))bis(3-acetamidopropanoic acid)]
6 | ≥ 100 | Cc1cn2nc(-c3cccc(-c4cccc(-c5cc6c(=O)n(CCN[C@@H](CN(C)C)C(=O)O)c(C)cn6n5)c4Cl)c3Cl)cc2c(=O)n1CCN[C@@H](CN(C)C)C(=O)O [Compound 69, (2S,2'S)-2,2′-((((2,2′-dichloro-[1,1′-biphenyl]-3,3′-diyl)bis(6-methyl-4-oxopyrazolo[1,5-a]pyrazine-2,5(4H)-diyl))bis(ethane-2,1-diyl))bis(azanediyl))bis(3-(dimethylamino)propanoic acid)]
7 | 10 to 100 | Cc1cn2nc(-c3cccc(-c4cccc(-c5cc6c(=O)n(CCCN[C@@H](CO)C(=O)O)c(C)cn6n5)c4Cl)c3Cl)cc2c(=O)n1CCCN[C@@H](CO)C(=O)O [Compound 70, (2S,2'S)-2,2′-((((2,2′-dichloro-[1,1′-biphenyl]-3,3′-diyl)bis(6-methyl-4-oxopyrazolo[1,5-a]pyrazine-2,5(4H)-diyl))bis(propane-3,1-diyl))bis(azanediyl))bis(3-hydroxypropanoic acid)]
8 | 10 to 100 | CC(=O)NCCNCc1cn2cc(-c3cccc(-c4cccc(-c5cc6c(=O)[nH]c(CNCCNC(C)=O)cn6c5)c4Cl)c3Cl)cc2c(=O)[nH]1 [Compound 72, N,N′-(((((2,2′-dichloro-[1,1′-biphenyl]-3,3′-diyl)bis(1-oxo-1,2-dihydropyrrolo[1,2-a]pyrazine-7,3-diyl))bis(methylene))bis(azanediyl))bis(ethane-2,1-diyl))diacetamide]
9 | 10 to 100 | CC(=O)NCCNCc1cn2cc(-c3cccc(-c4cccc(-c5cc6c(=O)n(C[C@@H]7CCC(=O)N7)c(CNCCNC(C)=O)cn6c5)c4Cl)c3Cl)cc2c(=O)n1C[C@@H]1CCC(=O)N1 [Compound 73, N,N′-(((((2,2′-dichloro-[1,1′-biphenyl]-3,3′-diyl)bis(1-oxo-2-(((S)-5-oxopyrrolidin-2-yl)methyl)-1,2-dihydropyrrolo[1,2-a]pyrazine-7,3-diyl))bis(methylene))bis(azanediyl))bis(ethane-2,1-diyl))diacetamide]
10 | 10 to 100 | Cc1cn2nc(-c3cccc(-c4cccc(-c5cc6c(=O)n(CCN7CCCCC7C(=O)O)c(C)cn6n5)c4Cl)c3Cl)cc2c(=O)n1CCN1CCCCC1C(=O)O (stereo not shown) [Compound 79, 1,1′-(((2,2′-dichloro-[1,1′-biphenyl]-3,3′-diyl)bis(6-methyl-4-oxopyrazolo[1,5-a]pyrazine-2,5(4H)-diyl))bis(ethane-2,1-diyl))bis(piperidine-2-carboxylic acid)]
11 | ≥ 100 | Cc1cn2nc(-c3cccc(-c4cccc(-c5cc6c(=O)n(CCN7CCNCC7)c(C)cn6n5)c4Cl)c3Cl)cc2c(=O)n1CCN1CCNCC1 [Compound 83, 2,2′-(2,2′-dichloro-[1,1′-biphenyl]-3,3′-diyl)bis(6-methyl-5-(2-(piperazin-1-yl)ethyl)pyrazolo[1,5-a]pyrazin-4(5H)-one)]

The next lines start with the compound.

Row | Compound | IC50 [nM]
12 | Cc1cn2cc(-c3cccc(-c4cccc(-c5cc6c(=O)n(CCNCC(O)CC(=O)O)c(C)cn6c5)c4Cl)c3Cl)cc2c(=O)n1CCNCC(O)CC(=O)O (stereo not shown) [Compound 56, 4,4′-((((2,2′-dichloro-[1,1′-biphenyl]-3,3′-diyl)bis(3-methyl-1-oxopyrrolo[1,2-a]pyrazine-7,2(1H)-diyl))bis(ethane-2,1-diyl))bis(azanediyl))bis(3-hydroxybutanoic acid)] | ≥ 100
13 | Cc1cn2cc(-c3cccc(-c4cccc(-c5cc6c(=O)n(CCN[C@@H](CCO)C(=O)O)c(C)cn6c5)c4Cl)c3Cl)cc2c(=O)n1CCN[C@@H](CCO)C(=O)O [Compound 58, (2S,2'S)-2,2′-((((2,2′-dichloro-[1,1′-biphenyl]-3,3′-diyl)bis(3-methyl-1-oxopyrrolo[1,2-a]pyrazine-7,2(1H)-diyl))bis(ethane-2,1-diyl))bis(azanediyl))bis(4-hydroxybutanoic acid)] | 10 to 100
14 | Cc1cn2nc(-c3cccc(-c4cccc(-c5cc6c(=O)n(CCN[C@@H](CCO)C(=O)O)c(C)cn6n5)c4Cl)c3Cl)cc2c(=O)n1CCN[C@@H](CCO)C(=O)O [Compound 62, (2S,2'S)-2,2′-((((2,2′-dichloro-[1,1′-biphenyl]-3,3′-diyl)bis(6-methyl-4-oxopyrazolo[1,5-a]pyrazine-2,5(4H)-diyl))bis(ethane-2,1-diyl))bis(azanediyl))bis(4-hydroxybutanoic acid)] | 10 to 100
15 | CCc1nn2cc(-c3cccc(-c4cccc(-c5cc6c(=O)n(CCN[C@@H](CO)C(=O)O)c(CC)nn6c5)c4Cl)c3Cl)cc2c(=O)n1CCN[C@@H](CO)C(=O)O [Compound 65, (2S,2'S)-2,2′-((((2,2′-dichloro-[1,1′-biphenyl]-3,3′-diyl)bis(2-ethyl-4-oxopyrrolo[2,1-f][1,2,4]triazine-6,3(4H)-diyl))bis(ethane-2,1-diyl))bis(azanediyl))bis(3-hydroxypropanoic acid)] | 10 to 100
16 | Cn1c(CCN[C@@H](CO)C(=O)O)cn2nc(-c3cccc(-c4cccc(-c5cc6c(=O)n(C)c(CCN[C@@H](CO)C(=O)O)cn6n5)c4Cl)c3Cl)cc2c1=O [Compound 71, (2S,2'S)-2,2′-((((2,2′-dichloro-[1,1′-biphenyl]-3,3′-diyl)bis(5-methyl-4-oxo-4,5-dihydropyrazolo[1,5-a]pyrazine-2,6-diyl))bis(ethane-2,1-diyl))bis(azanediyl))bis(3-hydroxypropanoic acid)] | < 10
17 | O=c1[nH]c(C[C@@H]2CCCN2)nn2cc(-c3cccc(-c4cccc(-c5cc6c(=O)[nH]c(C[C@@H]7CCCN7)nn6c5)c4Cl)c3Cl)cc12 [Compound 75, 6′-(2,2′-dichloro-[1,1′-biphenyl]-3,3′-diyl)bis(2-(((S)-pyrrolidin-2-yl)methyl)pyrrolo[2,1-f][1,2,4]triazin-4(3H)-one)] | 10 to 100
18 | Cc1cn2nc(-c3cccc(-c4cccc(-c5cc6c(=O)n(C[C@H]7CCNC7)c(C)cn6n5)c4Cl)c3Cl)cc2c(=O)n1C[C@H]1CCNC1 [Compound 81, 2,2′-(2,2′-dichloro-[1,1′-biphenyl]-3,3′-diyl)bis(6-methyl-5-(((S)-pyrrolidin-3-yl)methyl)pyrazolo[1,5-a]pyrazin-4(5H)-one)] | 10 to 100
19 | Cc1cn2nc(-c3cccc(-c4cccc(-c5cc6c(=O)n(CCNC7(C(=O)O)COC7)c(C)cn6n5)c4Cl)c3Cl)cc2c(=O)n1CCNC1(C(=O)O)COC1 [Compound 82, 3,3′-((((2,2′-dichloro-[1,1′-biphenyl]-3,3′-diyl)bis(6-methyl-4-oxopyrazolo[1,5-a]pyrazine-2,5(4H)-diyl))bis(ethane-2,1-diyl))bis(azanediyl))bis(oxetane-3-carboxylic acid)] | ≥ 100
